The source of these data is US20100304418A1, “Compositions and Methods for Monitoring Flow Through Fluid Conducting and Containment Systems” (priority 2007, published 2010).

Data set [1] in a line: Thermal stability of galactose and derivatives. The following applies: 20 h.
Procedure: The thermal stability of both galactose and octy-galactose was investigated. Galactose and octyl-galacotse solutions (50 ppm, 30 mL) were prepared in both deionised water and formation water. These solutions were divided and the pH of one water sample and one formation water sample was adjusted to 2 with HCl. 4.5 mL of each solution was placed in a duran bottle with Teflon tape wrapped around the threads to prevent evaporation. The eight samples were heated at 100 or 120° C. for 20 h. The remaining solutions were kept at 4° C. inbetween experiments. Each of the samples was diluted 10-fold before analysis.
The target in data set [2] is T1, galactose oxidase (Gibberella zeae, UniProt P0CS93).
The target in data set [3] is T1, galactose oxidase. The class given is biochemical.
Data set [4] is described as follows: Heat treatment of GFP solution with added biotin. The following applies: 100° C. for 1 hour in GFP solution.
Procedure: The sample has high fluorescence from the GFP. This solution was treated in 2 ways (a) no treatment (b) heat treated (samples were heated to 100° C. for 1 hour in an oven).
The test system of a further data set is seawater bacteria. To be noted: 28 day seawater test.
Data set [5] is described as follows: Biodegradation, 28 day seawater test, OECD 306. The following applies: over 28 days.
A further data set concerns the target T2, xanthine oxidase (Bos taurus, UniProt P80457).
T2 construct: purchased
Briefly: Limit of detection of xanthine and hypoxanthine, xanthine oxidase / Amplex Red assay.

Data set [6] in a line: Thermostability of xanthine and hypoxanthine. The following applies: room temperature and 120° C., 20 h, acidic and neutral pH.
Procedure: These solutions were divided and the pH of one sample of each compound was adjusted to 2 with HCl. 4.5 mL of each solution was placed in a duran bottle with Teflon tape wrapped around the threads to prevent evaporation. The samples were heated at 120° C. for 20 h. The remaining solutions were kept at 25° C. Each of the samples was diluted 10-fold to 7.5 ppm before analysis.

T1 sequence (P0CS93 42-680 limits assumed): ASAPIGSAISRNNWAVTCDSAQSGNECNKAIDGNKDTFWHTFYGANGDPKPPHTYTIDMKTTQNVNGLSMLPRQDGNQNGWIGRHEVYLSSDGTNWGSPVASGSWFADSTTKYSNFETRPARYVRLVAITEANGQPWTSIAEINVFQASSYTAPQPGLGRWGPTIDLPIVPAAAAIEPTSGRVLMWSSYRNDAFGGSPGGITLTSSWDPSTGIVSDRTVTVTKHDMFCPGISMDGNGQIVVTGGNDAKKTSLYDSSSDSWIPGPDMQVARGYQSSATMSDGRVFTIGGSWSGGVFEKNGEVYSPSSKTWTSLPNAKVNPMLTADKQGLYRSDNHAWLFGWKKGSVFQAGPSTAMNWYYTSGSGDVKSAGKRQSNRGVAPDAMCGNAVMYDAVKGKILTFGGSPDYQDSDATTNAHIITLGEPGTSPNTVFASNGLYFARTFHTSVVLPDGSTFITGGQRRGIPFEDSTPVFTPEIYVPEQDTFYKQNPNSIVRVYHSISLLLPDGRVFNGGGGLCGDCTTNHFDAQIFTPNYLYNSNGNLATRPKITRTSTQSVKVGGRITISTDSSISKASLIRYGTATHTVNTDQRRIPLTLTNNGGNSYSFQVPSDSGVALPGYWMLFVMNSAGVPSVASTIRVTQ
T2 sequence (P80457 whole entry): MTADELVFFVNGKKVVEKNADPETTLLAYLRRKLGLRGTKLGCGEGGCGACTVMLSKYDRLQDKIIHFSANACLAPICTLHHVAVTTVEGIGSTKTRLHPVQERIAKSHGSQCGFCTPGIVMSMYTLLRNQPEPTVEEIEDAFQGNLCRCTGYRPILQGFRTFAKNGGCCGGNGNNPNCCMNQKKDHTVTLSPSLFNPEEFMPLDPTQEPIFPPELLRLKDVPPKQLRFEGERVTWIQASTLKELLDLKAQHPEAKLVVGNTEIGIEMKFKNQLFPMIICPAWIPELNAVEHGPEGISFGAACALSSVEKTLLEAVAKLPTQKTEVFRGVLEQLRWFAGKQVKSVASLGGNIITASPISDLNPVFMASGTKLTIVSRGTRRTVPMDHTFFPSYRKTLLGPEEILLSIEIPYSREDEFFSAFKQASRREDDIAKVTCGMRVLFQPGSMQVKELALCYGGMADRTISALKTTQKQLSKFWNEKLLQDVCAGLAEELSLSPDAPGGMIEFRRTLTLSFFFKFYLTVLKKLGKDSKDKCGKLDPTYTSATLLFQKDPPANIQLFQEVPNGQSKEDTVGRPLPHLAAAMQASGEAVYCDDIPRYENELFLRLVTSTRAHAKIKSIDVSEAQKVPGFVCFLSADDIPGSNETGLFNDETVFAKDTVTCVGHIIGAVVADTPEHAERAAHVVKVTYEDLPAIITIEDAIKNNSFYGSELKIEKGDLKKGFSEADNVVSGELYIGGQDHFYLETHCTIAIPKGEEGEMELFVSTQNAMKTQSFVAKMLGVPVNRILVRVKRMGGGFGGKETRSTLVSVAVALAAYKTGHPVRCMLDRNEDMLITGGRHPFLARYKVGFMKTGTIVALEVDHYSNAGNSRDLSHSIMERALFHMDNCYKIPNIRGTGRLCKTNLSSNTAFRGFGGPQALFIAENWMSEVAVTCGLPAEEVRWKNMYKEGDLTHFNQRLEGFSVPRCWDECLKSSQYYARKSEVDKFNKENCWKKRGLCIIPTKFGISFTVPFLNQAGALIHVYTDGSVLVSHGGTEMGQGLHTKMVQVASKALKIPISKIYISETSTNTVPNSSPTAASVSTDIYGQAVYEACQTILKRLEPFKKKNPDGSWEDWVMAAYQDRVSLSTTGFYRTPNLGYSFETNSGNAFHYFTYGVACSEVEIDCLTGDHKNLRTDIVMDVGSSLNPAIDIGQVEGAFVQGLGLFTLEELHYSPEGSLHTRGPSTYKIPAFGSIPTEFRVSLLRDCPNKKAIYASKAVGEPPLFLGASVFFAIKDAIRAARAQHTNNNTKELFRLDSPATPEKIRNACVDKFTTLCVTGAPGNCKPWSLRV
Source text for xanthine oxidase: This assay uses xanthine oxidase to catalyze the oxidation of hypoxanthine or xanthine, to uric acid and superoxide. The superoxide spontaneously degrades to hydrogen peroxide (H2O2), which reacts stoichiometrically with Amplex® Red in the presence of horseradishperoxidase (HRP). A fluorescent product, resorufin, is generated which can be detected fluorometrically or spectrophotometrically.

Turning to `O=C[C@H](O)[C@@H](O)[C@@H](O)[C@H](O)CO` [galactose], the thermal stability result in [1] (above 100° C. (120° C.)) is given as “a drop in concentration is observed”. The thermal stability result in [1] (to 100° C., water and formation water, pH 6-7 and pH 2) is on record as “sufficiently stable”. Moreover, at galactose oxidase [2], the detectable concentration range is listed as 0-30 ppm and the limit of detection result was “ca. 0.3 ppm”.
In the case of `O=C(CO)[C@@H](O)[C@H](O)[C@H](O)CO` [fructose], the “oxidation by galactose oxidase / interference with galactose assay” value at galactose oxidase [3] was “can be oxidized by galactose oxidase”.
Regarding `O=C(O)CCCC[C@@H]1SC[C@@H]2NC(=O)N[C@@H]21` [biotin], the “effect of heat treatment on biotin detection” value in data set [4] is listed as “unaffected”. In addition, in the data set with seawater bacteria, the “inhibition to seawater bacteria” value turned out to be 42%. Moreover, the “drop in fluorescence after heat and pressure” value (250 nM in synthetic formation water, 150° C., 3 kbar, 15 minutes) is recorded as “no obvious drop in fluorescence”. Besides, for the setting “dilution series, increasing temperatures up to 150° C., 4 kbar, aqueous phase of produced fluids”, the “loss of fluorescence due to temperature and pressure” value was “No loss of fluorescence”. In addition, in data set [5], the degradation turned out to be 14%.
For `O=c1[nH]c(=O)c2[nH]cnc2[nH]1` [xanthine], on xanthine oxidase, the limit of detection result is given as “less than 0.16 ppm”.
In the case of `O=c1[nH]cnc2nc[nH]c12` [hypoxanthine], the thermal stability result in data set [6] is “stable”. The compound also displayed a limit of detection at xanthine oxidase of over 0.02 ppm.
